Consider two molecules from US9341618B2, “Method for evaluating or screening hair growth-regulating agent” (Kao Corporation, priority 2007, dated 2016).

Read-outs that look alike come from different tables or passages of the source.

The subject of one assay is hair follicles of a pig. Particulars: DHT 10 ng/mL; for Hair elongation quantity (control regarded as 100%): 6th day of organ culture, William's E medium. The method, then:
As a pig skin, a skin obtained from a crossbred pig with white hair which has been bred as a pork pig in Japan was used. The pig skin was cut into an appropriate size, the extra fat was cut away, and the resulting skin was soaked in a Hibiten solution (5% Hibiten solution (Sumitomo Pharmaceuticals) was diluted to 5 to 20 times with water) for 5 to 10 minutes under sterile conditions for sterilization and then washed several times with D-PBS.
Then hair follicles were isolated from the treated pig skin using forceps and scalpel (FEATHER No. 10) under a stereo microscope and collected in a medium.
According to the procedures (1), hair follicles of a pig were obtained from the dorsal region, lateral region, abdominal region, inguinal region, buttocks and shoulder of the pig. The isolated hair follicles were placed in a 24-well culture plate to give one hair follicle per well.
Incubation was carried out at 37° C. for 6 days in an incubator containing 5% of CO2.
The medium was exchanged every two days or every three days, and a hair elongation quantity after 6 days incubation was measured and compared with that of control.
For the control, William's E medium not containing DHT was used, and a hair elongation quantity after the organ culture was regarded as 100%.
Incidentally, a hair elongation quantity was measured, regarding the date on which incubation was commenced as the 0th day, by taking stereo microscopic images with a CCD camera (pixera model No. PVC 100C) at the 0th day and the 6th day, and measuring the change of the length from the base of hairbulb to the tip of hair shaft based on the images.

Assay [1] deals with hair follicles of a human. Particulars: literature; cited from earlier work.
Assay [2] concerns hair follicles at the buttocks of a pig. Description: Organ culture of pig buttocks hair follicles in RPMI1640 medium (hair elongation). The class given is cell-based. The note with it: TGF-β2 10 ng/mL, 8th day of organ culture in RPMI1640 medium. The method, then:
The hair follicles were incubated at 37° C. for 8 days in an incubator containing 5% of CO2.

Where [3] appears, read: abdominal region hair follicles.

On to `C[C@]12CCC(=O)C[C@@H]1CC[C@@H]1[C@@H]2CC[C@]2(C)[C@@H](O)CC[C@@H]12` [DHT, 5α-dihydrotestosterone], for which the “Growth of hair follicles, effect in words” value is “suppressed” with hair follicles of a pig (setting [3]) and “promoted” with hair follicles of a pig (dorsal region hair follicles). Also, the “Hair elongation quantity (control regarded as 100%)” value with hair follicles of a pig (setting [3]) is given as 75%; in the assay on hair follicles of a pig (buttocks hair follicles), 102%; with hair follicles of a pig (dorsal region hair follicles), 179%; in the assay on hair follicles of a pig (inguinal region hair follicles) it was 102%; in the assay with hair follicles of a pig (lateral region hair follicles) it was 108%; in the assay on hair follicles of a pig (shoulder hair follicles), 99%.

B1: TGF-β2: TGF-β2 (R & D Systems, Inc., item No. 102-B2-001/CF), confirmed to suppress hair growth in human hair follicle organ culture (protein, UniProt P61812 303-414, looked up)
Transforming growth factor …: ALDAAYCFRNVQDNCCLRPLYIDFKRDLGWKWIHEPKGYNANFCAGACPYLWSSDTQHSRVLSLYNTINPEASASPCCVSQDLEPLTILYYIGKTPKIEQLSNMIVKSCKCS
B1: the “Effect on hair growth in organ culture” value in assay [1] was “confirmed to suppress hair growth”. Further, the “Hair elongation rate (%) when that of control is regarded as 100%” value in assay [2] is reported as 59%.
